# Experimental data published in patent US6613901B2, “2-aminoalkylaminoquinolines as dopamine D4 ligands” (Neurogen Corporation, priority 1998, dated 2003).
# Structures can show the parent of a compound that is named as a salt.
# Tests used:
# [1] = target: T1, D2 receptors (Chlorocebus aethiops, UniProt P52702); assay: D2 receptor binding assay (3H-YM 09151-2); parameters: species or system African Green monkey; settings: Table 1; COS cell pellets with recombinant receptor, 0.5 nM 3H-YM 09151-2
# T1 construct: expressed in transfected cells; host or cells: COS cells
# Description: (§1) Assay for D2 and D4 Receptor Binding Activity
# (§2) Pellets of COS cells containing recombinantly produced D2 or D4 receptors from African Green monkey were used for the assays. The sample is homogenized in 100 volumes (w/vol) of 0.05 M Tris HCl buffer at 4° C. and pH 7.4. The sample is then centrifuged at 30,000×g and resuspended and rehomogenized. The sample is then centrifuged as described and the final tissue sample is frozen until use. The tissue is resuspended 1:20 (wt/vol) in 0.05 M Tris HCl buffer containing 100 mM NaCl.
# [2] = target: T2, M1 Muscarinic subtype (Homo sapiens, UniProt P11229); assay: M1 Muscarinic subtype assay per U.S. Pat. No. 5,093,333; type: binding; settings: Table 1
# T2 sequence (P11229 1-460): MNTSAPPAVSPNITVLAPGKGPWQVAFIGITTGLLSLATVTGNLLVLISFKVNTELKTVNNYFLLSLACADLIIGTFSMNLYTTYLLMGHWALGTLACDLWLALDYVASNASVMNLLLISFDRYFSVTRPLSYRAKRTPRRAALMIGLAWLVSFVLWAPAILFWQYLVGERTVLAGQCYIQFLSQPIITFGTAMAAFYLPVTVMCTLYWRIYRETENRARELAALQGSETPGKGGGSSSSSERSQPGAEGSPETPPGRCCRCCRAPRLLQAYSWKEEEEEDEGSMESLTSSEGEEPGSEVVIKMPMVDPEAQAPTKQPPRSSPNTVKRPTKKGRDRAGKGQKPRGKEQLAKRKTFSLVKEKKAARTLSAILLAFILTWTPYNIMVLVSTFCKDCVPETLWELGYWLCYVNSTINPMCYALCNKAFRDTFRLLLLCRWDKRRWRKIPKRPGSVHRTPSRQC
# [3] = target: T3, M2 Muscarinic subtype (Homo sapiens, UniProt P08172); assay: M2 Muscarinic subtype assay per U.S. Pat. No. 5,093,333; type: binding; settings: Table 1
# T3 sequence (P08172 1-466): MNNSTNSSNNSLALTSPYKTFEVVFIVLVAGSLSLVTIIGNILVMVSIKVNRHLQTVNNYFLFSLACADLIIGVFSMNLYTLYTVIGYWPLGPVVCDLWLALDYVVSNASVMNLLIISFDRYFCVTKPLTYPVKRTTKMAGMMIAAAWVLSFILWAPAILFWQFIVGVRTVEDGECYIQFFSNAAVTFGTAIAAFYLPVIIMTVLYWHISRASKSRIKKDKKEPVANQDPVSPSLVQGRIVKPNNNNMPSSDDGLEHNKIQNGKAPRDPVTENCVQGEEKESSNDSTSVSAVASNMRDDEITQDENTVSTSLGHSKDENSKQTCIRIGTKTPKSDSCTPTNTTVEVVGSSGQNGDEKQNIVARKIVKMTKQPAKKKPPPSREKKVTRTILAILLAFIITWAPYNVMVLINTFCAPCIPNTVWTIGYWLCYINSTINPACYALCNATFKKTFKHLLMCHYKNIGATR
# [4] = target: D4 receptors (Chlorocebus aethiops, UniProt A0A0D9REG7); assay: D4 receptor binding assay (3H-YM 09151-2); parameters: species or system African Green monkey; settings: Table 1; COS cell pellets with recombinant receptor, 0.5 nM 3H-YM 09151-2; read-out: D4 K1
# Description: as §1, §2
# T1 sequence (P52702 whole entry): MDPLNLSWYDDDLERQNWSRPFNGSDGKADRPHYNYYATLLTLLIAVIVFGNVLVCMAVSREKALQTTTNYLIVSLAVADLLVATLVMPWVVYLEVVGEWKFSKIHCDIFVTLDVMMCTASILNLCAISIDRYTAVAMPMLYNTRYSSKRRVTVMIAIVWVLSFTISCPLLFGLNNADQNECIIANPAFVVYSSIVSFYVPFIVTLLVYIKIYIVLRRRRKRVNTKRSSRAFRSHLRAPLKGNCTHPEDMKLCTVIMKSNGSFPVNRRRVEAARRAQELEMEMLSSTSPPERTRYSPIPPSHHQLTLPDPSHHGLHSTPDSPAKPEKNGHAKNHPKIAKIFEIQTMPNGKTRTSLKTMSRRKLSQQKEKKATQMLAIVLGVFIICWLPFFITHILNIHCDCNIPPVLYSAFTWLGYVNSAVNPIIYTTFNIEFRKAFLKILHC
# Sequence of D4 receptors (A0A0D9REG7 entry or part of it): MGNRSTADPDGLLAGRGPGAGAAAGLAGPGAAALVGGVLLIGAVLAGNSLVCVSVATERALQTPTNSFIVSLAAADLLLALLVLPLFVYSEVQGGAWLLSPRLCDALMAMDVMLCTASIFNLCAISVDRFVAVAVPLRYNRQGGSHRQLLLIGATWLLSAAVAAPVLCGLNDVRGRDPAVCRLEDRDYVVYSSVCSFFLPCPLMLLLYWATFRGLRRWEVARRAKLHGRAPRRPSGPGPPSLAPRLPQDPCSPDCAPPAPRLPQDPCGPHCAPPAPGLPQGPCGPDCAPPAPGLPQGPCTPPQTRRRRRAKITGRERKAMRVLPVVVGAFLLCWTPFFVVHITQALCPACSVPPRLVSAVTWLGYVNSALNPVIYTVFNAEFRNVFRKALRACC
Molecule,melting point [°C],M1 [2] [nM],M2 [3] [nM],Ki [1] [nM],Ki [4] [nM]
"c1cnc(N2CCN(CCNc3ccc4ccccc4n3)CC2)nc1 [Compound 1, (2-(4-pyrimidin-2-ylpiperazinyl)ethyl)-2-quinolylamine]",,264,299,2720,
"c1ccc(N2CCN(CCNC3=Nc4ccccc4CC3)CC2)nc1 [Compound 2, 2-3,4-dihydroquinolyl(2-(4-(2-pyridyl)piperazinyl)ethyl)amine]",,,,> 100,
"(3-(4-(2,3-dimethylphenyl)piperazinyl)propyl)-2-quinolylamine [Compound 21]",,,,> 100,22
(4-methyl(2-quinolyl))(3-(4-(pyrimidin-2-yl)piperazinyl)propyl)amine [Compound 22],,,,3300,10
(4methyl(2-quinolyl))(2-(4-pyrimidin-2-ylpiperazinyl)ethyl)amine hydrobromide [Compound 11],,178,246,,10

# Continued, in another order:
melting point [°C],M1 [2] [nM],M2 [3] [nM],Molecule,Ki [1] [nM],Ki [4] [nM]
247,,,OC1(c2ccccc2)CCN(CCCNC2=Nc3ccccc3CC2)CC1 (as salt: hydrobromid),,
> 260,,,OC1(c2ccc(Cl)cc2)CCN(CCCNC2=Nc3ccccc3CC2)CC1 (as salt: hydrobromid),,
,128,144,"Fc1cnc(N2CCN(CCNC3=Nc4ccccc4CC3)CC2)nc1 [Compound 3, 2-3,4-dihydroquinolyl(2-(4-(5-fluoropyrimidin-2-yl)piperazinyl)ethyl)amine]",,
